We go through two compounds from ChEMBL document CHEMBL4507319 (2021).

As usually defined, the residual activity is the activity still measured, relative to the control. As a reminder, the inhibition is the relative decrease from the control value, in per cent.

Experiment [1] has as its system Tyrosine-protein kinase ABL1 (Homo sapiens), P00519 [T315I]. Particulars: Compound concentration 1000.0 nM.
Experiment [2] concerns the target Death-associated protein kinase 2 (Homo sapiens) (UniProt Q9UIK4). Particulars: Compound concentration 1000.0 nM.
The target in experiment [3] is T1, Inhibitor of nuclear factor kappa-B kinase subunit epsilon (Homo sapiens) (UniProt Q14164).
T1 sequence (whole entry): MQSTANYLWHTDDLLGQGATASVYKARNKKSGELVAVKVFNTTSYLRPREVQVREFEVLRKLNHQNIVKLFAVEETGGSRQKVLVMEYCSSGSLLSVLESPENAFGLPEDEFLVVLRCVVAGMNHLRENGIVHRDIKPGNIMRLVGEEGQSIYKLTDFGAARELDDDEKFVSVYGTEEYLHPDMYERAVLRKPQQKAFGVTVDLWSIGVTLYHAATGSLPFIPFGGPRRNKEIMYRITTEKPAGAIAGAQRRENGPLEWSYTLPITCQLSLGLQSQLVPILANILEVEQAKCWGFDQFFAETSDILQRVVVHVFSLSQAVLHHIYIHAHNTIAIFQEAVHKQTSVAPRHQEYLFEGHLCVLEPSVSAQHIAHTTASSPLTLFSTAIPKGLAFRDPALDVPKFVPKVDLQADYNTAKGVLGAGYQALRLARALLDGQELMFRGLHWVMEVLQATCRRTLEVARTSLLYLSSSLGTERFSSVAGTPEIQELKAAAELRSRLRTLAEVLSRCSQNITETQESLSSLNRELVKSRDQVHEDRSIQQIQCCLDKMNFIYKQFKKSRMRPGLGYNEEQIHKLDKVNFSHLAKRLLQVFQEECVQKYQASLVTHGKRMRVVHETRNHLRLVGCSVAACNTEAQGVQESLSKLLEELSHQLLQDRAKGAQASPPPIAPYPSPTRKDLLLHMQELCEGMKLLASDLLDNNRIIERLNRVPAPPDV
Particulars: Compound concentration 1000.0 nM.

Experiment [4] addresses T2, Myosin light chain kinase (Homo sapiens) (UniProt Q32MK0).
T2 sequence (whole entry): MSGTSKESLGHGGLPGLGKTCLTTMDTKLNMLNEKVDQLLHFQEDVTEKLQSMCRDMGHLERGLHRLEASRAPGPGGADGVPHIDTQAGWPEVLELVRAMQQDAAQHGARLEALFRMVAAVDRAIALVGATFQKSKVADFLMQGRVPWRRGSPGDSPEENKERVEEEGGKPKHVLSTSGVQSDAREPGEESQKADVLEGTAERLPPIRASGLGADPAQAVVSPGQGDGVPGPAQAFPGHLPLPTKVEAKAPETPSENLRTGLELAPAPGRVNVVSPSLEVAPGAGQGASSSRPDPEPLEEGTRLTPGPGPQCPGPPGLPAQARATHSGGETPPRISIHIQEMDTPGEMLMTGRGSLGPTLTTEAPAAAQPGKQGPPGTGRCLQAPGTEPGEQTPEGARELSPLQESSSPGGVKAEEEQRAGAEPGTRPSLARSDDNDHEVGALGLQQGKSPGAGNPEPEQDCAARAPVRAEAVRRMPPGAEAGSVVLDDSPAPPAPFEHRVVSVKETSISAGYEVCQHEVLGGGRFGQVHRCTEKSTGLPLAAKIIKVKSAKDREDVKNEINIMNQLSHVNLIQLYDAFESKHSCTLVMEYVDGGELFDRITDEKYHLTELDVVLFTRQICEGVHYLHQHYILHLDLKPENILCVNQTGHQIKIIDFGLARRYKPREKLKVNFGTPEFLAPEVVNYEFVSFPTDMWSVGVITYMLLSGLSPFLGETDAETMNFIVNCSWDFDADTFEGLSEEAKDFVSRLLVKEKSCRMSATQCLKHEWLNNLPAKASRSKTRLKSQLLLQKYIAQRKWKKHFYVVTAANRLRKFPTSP
The settings on record: Compound concentration 1000.0 nM.

In experiment [5] the test system is Proto-oncogene tyrosine-protein kinase receptor Ret (Homo sapiens), P07949 [V804M]. The settings on record: Compound concentration 1000.0 nM.
Proto-oncogene tyrosine-protein kinase receptor Ret (Homo sapiens), P07949 [V804M], sequence (P07949 whole entry V804M): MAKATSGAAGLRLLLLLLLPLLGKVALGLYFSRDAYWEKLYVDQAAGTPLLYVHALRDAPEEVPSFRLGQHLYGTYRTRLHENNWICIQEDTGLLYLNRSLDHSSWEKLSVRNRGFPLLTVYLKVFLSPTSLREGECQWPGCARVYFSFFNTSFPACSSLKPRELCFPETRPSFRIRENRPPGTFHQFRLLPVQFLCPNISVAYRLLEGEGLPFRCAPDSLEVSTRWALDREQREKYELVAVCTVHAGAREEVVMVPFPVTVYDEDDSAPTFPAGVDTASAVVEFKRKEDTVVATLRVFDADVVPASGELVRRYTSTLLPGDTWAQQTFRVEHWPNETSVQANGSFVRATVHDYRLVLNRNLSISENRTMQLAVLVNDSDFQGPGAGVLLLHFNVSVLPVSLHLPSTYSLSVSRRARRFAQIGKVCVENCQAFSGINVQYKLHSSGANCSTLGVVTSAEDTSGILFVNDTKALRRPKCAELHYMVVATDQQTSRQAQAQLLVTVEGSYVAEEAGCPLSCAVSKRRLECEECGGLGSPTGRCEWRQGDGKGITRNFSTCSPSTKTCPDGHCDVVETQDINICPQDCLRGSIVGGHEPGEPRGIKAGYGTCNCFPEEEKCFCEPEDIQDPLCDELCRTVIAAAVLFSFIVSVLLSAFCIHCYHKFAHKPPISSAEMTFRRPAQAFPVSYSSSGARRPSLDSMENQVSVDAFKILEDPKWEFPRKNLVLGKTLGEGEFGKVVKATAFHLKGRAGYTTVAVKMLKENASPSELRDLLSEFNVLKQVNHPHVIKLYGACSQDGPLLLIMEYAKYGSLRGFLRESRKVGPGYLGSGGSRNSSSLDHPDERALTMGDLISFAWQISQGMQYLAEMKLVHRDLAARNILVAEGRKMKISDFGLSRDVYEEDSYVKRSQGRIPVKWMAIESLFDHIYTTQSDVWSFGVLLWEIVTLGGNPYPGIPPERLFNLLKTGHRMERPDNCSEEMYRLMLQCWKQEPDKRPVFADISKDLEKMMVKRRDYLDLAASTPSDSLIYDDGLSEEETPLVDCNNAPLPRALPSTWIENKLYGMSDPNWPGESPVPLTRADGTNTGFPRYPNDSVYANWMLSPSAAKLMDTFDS
Experiment [6] deals with T3, Tyrosine-protein kinase TXK (Homo sapiens) (UniProt P42681).
T3 sequence (whole entry): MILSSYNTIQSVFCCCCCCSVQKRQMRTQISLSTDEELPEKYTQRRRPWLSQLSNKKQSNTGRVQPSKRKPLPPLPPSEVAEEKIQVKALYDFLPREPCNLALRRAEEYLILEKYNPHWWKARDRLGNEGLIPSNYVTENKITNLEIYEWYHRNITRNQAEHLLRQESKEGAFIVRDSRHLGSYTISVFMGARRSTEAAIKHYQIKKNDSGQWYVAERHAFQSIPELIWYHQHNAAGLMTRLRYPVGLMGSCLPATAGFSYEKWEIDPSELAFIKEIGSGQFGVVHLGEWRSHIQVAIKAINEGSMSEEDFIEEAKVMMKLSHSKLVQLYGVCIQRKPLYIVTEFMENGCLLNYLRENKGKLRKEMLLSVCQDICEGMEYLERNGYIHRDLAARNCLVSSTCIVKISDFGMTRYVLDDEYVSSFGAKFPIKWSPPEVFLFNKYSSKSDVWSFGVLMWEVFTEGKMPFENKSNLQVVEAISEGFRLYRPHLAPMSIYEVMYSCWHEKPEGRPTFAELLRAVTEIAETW
Particulars: Compound concentration 1000.0 nM.

Experiment [7] addresses 5-hydroxytryptamine receptor 3A (Homo sapiens) (UniProt P46098). The settings on record: Compound concentration 10.0 uM.

Death-associated protein kinase 2 (Homo sapiens), sequence (Q9UIK4 whole entry, looked up): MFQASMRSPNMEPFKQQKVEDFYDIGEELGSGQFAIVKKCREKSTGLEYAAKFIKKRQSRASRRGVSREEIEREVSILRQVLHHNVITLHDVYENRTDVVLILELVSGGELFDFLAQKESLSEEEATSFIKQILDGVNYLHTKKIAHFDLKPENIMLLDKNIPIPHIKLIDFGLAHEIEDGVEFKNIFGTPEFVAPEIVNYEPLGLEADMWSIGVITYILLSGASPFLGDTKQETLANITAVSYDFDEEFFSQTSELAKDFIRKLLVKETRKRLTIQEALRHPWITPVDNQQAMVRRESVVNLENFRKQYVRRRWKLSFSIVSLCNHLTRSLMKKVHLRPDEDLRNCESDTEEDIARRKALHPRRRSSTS
5-hydroxytryptamine receptor 3A (Homo sapiens), sequence (P46098 whole entry): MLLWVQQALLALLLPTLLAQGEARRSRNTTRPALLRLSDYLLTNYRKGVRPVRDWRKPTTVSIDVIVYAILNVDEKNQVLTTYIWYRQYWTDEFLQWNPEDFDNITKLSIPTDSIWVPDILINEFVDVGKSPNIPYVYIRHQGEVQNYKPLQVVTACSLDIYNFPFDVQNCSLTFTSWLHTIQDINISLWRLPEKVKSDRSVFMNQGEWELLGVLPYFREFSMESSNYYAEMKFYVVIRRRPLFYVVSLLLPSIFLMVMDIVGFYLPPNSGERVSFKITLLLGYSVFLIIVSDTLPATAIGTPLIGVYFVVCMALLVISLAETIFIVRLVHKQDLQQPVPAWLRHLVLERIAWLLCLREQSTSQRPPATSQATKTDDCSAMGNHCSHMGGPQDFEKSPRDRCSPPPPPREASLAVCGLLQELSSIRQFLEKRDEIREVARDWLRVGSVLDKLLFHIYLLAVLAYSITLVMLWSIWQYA

On to `CCc1ccccc1C(=O)Nc1n[nH]c2c(C)c(F)c(C3C(C#N)=C(C)N(C)C(C)=C3C#N)cc12` [BAY-3827], for which the residual activity in experiment [1] was 72%; in experiment [2], 63%; in experiment [3], 68%; in experiment [4], 100%; in experiment [5] it was 11%; in experiment [6] it was 84%. Moreover, in experiment [7], the inhibition is 2.79%.
Consider `CC1=C(C#N)C(c2ccc3c(c2)c(NC(=O)c2ccccc2C)nn3C)C(C#N)=C(C)N1` [BAY-974], for which the residual activity was 97% in experiment [1]; 98% in experiment [2]; 100% in experiment [3]; 86% in experiment [4]; 91% in experiment [5]; 100% in experiment [6]. Besides, in experiment [7], the inhibition was 9.93%.
